Test results published in patent US12049450B2, “Pyridyloxy-carboxylate derivative and preparation method therefor, herbicidal composition, and use” (Qingdao Kingagroot Chemical Compound Co., Ltd., priority 2018, dated 2024).

Legend:
Assay in all cases: Post-emergence test experiment (greenhouse pot, spray at 2-3 leaf stage)
Format in all cases: in vivo
Conditions in all cases: 1000 g/ha; post-emergence spray at 2-3 leaf stage; assessed after 3 weeks; fresh weight inhibition rate
Echinochloa crusgalli = tested on: Echinochloa crusgalli
Method in brief: (§1)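 Activity graded levels 0-5 by fresh-weight inhibition (level 5 above 85%, level 0 below 5%), assessed 3 weeks after treatment. Plants grown in greenhouse pots were sprayed post-emergence at 2-3 leaves using acetone/tween-80 solutions with methyl oleate synergist (1.5 L/ha).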

Digitaria sanguinalis = tested on: Digitaria sanguinalis
Method in brief: as §1

Galium spurium = tested on: Galium spurium
Method in brief: as §1

Abutilon theophrasti = tested on: Abutilon theophrasti
Method in brief: as §1

Monochoria vaginalis = tested on: Monochoria vaginalis
Method in brief: as §1

CC(Oc1nc(F)c(Cl)c(N)c1Cl)C(=O)OCc1ccc(Br)cc1 (stereo not shown) [Compound 207] was tested, and the “Activity level (growth inhibition rate) Echinochloa crusgalli” value (Echinochloa crusgalli) was 5 (Level 5: the growth inhibition rate is greater than 85%), the “Activity level (growth inhibition rate) Digitaria sanguinalis” value (Digitaria sanguinalis) was 5 (Level 5: the growth inhibition rate is greater than 85%) and the “Activity level (growth inhibition rate) Galium spurium” value (Galium spurium) was 5 (Level 5: the growth inhibition rate is greater than 85%). The “Activity level (growth inhibition rate) Abutilon theophrasti” value (Abutilon theophrasti) was 5 (Level 5: the growth inhibition rate is greater than 85%) and the “Activity level (growth inhibition rate) Monochoria Vaginalis” value (Monochoria vaginalis) was 5 (Level 5: the growth inhibition rate is greater than 85%).

For CC(Oc1nc(F)c(Cl)c(N)c1Cl)C(=O)OCc1ccc(C#N)cc1 (stereo not shown) [Compound 91], the “Activity level (growth inhibition rate) Echinochloa crusgalli” value (Echinochloa crusgalli) was 5 (Level 5: the growth inhibition rate is greater than 85%), the “Activity level (growth inhibition rate) Digitaria sanguinalis” value (Digitaria sanguinalis) was 5 (Level 5: the growth inhibition rate is greater than 85%) and the “Activity level (growth inhibition rate) Galium spurium” value (Galium spurium) was 5 (Level 5: the growth inhibition rate is greater than 85%). The “Activity level (growth inhibition rate) Abutilon theophrasti” value (Abutilon theophrasti) was 5 (Level 5: the growth inhibition rate is greater than 85%) and the “Activity level (growth inhibition rate) Monochoria Vaginalis” value (Monochoria vaginalis) was 5 (Level 5: the growth inhibition rate is greater than 85%).

With CC(=O)c1ccc(CCSC(=O)C(C)Oc2nc(F)c(Cl)c(N)c2Cl)cc1 (stereo not shown) [Compound 104] the “Activity level (growth inhibition rate) Echinochloa crusgalli” value (Echinochloa crusgalli) was 5 (Level 5: the growth inhibition rate is greater than 85%), the “Activity level (growth inhibition rate) Digitaria sanguinalis” value (Digitaria sanguinalis) was 5 (Level 5: the growth inhibition rate is greater than 85%) and the “Activity level (growth inhibition rate) Galium spurium” value (Galium spurium) was 5 (Level 5: the growth inhibition rate is greater than 85%). The “Activity level (growth inhibition rate) Abutilon theophrasti” value (Abutilon theophrasti) was 5 (Level 5: the growth inhibition rate is greater than 85%) and the “Activity level (growth inhibition rate) Monochoria Vaginalis” value (Monochoria vaginalis) was 5 (Level 5: the growth inhibition rate is greater than 85%).

CC(Oc1nc(F)c(Cl)c(N)c1Cl)C(=O)SCn1ccnn1 (stereo not shown) [Compound 137] was tested, and the “Activity level (growth inhibition rate) Echinochloa crusgalli” value (Echinochloa crusgalli) was 5 (Level 5: the growth inhibition rate is greater than 85%), the “Activity level (growth inhibition rate) Digitaria sanguinalis” value (Digitaria sanguinalis) was 5 (Level 5: the growth inhibition rate is greater than 85%) and the “Activity level (growth inhibition rate) Galium spurium” value (Galium spurium) was 5 (Level 5: the growth inhibition rate is greater than 85%). For the same molecule, the “Activity level (growth inhibition rate) Abutilon theophrasti” value (Abutilon theophrasti) was 5 (Level 5: the growth inhibition rate is greater than 85%) and the “Activity level (growth inhibition rate) Monochoria Vaginalis” value (Monochoria vaginalis) was 5 (Level 5: the growth inhibition rate is greater than 85%).

For CC(Oc1nc(F)c(Cl)c(N)c1Cl)C(=O)SCc1cccs1 (stereo not shown) [Compound 154], the “Activity level (growth inhibition rate) Echinochloa crusgalli” value (Echinochloa crusgalli) was 5 (Level 5: the growth inhibition rate is greater than 85%), the “Activity level (growth inhibition rate) Digitaria sanguinalis” value (Digitaria sanguinalis) was 5 (Level 5: the growth inhibition rate is greater than 85%) and the “Activity level (growth inhibition rate) Galium spurium” value (Galium spurium) was 5 (Level 5: the growth inhibition rate is greater than 85%). The “Activity level (growth inhibition rate) Abutilon theophrasti” value (Abutilon theophrasti) was 5 (Level 5: the growth inhibition rate is greater than 85%) and the “Activity level (growth inhibition rate) Monochoria Vaginalis” value (Monochoria vaginalis) was 5 (Level 5: the growth inhibition rate is greater than 85%).

With CC(Oc1nc(F)c(Cl)c(N)c1Cl)C(=O)OCc1ncco1 (stereo not shown) [Compound 143] the “Activity level (growth inhibition rate) Echinochloa crusgalli” value (Echinochloa crusgalli) was 5 (Level 5: the growth inhibition rate is greater than 85%), the “Activity level (growth inhibition rate) Digitaria sanguinalis” value (Digitaria sanguinalis) was 5 (Level 5: the growth inhibition rate is greater than 85%) and the “Activity level (growth inhibition rate) Galium spurium” value (Galium spurium) was 5 (Level 5: the growth inhibition rate is greater than 85%). For the same molecule, the “Activity level (growth inhibition rate) Abutilon theophrasti” value (Abutilon theophrasti) was 5 (Level 5: the growth inhibition rate is greater than 85%) and the “Activity level (growth inhibition rate) Monochoria Vaginalis” value (Monochoria vaginalis) was 5 (Level 5: the growth inhibition rate is greater than 85%).

For CC(Oc1nc(F)c(Cl)c(N)c1Cl)C(=O)SCc1ccc2nnccc2c1 (stereo not shown) [Compound 188], the “Activity level (growth inhibition rate) Echinochloa crusgalli” value (Echinochloa crusgalli) was 5 (Level 5: the growth inhibition rate is greater than 85%), the “Activity level (growth inhibition rate) Digitaria sanguinalis” value (Digitaria sanguinalis) was 5 (Level 5: the growth inhibition rate is greater than 85%) and the “Activity level (growth inhibition rate) Galium spurium” value (Galium spurium) was 5 (Level 5: the growth inhibition rate is greater than 85%). For the same molecule, the “Activity level (growth inhibition rate) Abutilon theophrasti” value (Abutilon theophrasti) was 5 (Level 5: the growth inhibition rate is greater than 85%) and the “Activity level (growth inhibition rate) Monochoria Vaginalis” value (Monochoria vaginalis) was 5 (Level 5: the growth inhibition rate is greater than 85%).

With CC(=O)Nc1c(Cl)c(F)nc(OC(C)C(=O)OCc2ccccc2)c1Cl (stereo not shown) [Compound 192] the “Activity level (growth inhibition rate) Echinochloa crusgalli” value (Echinochloa crusgalli) was 5 (Level 5: the growth inhibition rate is greater than 85%), the “Activity level (growth inhibition rate) Digitaria sanguinalis” value (Digitaria sanguinalis) was 5 (Level 5: the growth inhibition rate is greater than 85%) and the “Activity level (growth inhibition rate) Galium spurium” value (Galium spurium) was 5 (Level 5: the growth inhibition rate is greater than 85%). For the same molecule, the “Activity level (growth inhibition rate) Abutilon theophrasti” value (Abutilon theophrasti) was 5 (Level 5: the growth inhibition rate is greater than 85%) and the “Activity level (growth inhibition rate) Monochoria Vaginalis” value (Monochoria vaginalis) was 5 (Level 5: the growth inhibition rate is greater than 85%).

CC(Oc1nc(F)c(Cl)c(N)c1Cl)C(=O)SCc1ccnn1C (stereo not shown) [Compound 132] was tested, and the “Activity level (growth inhibition rate) Echinochloa crusgalli” value (Echinochloa crusgalli) was 5 (Level 5: the growth inhibition rate is greater than 85%), the “Activity level (growth inhibition rate) Digitaria sanguinalis” value (Digitaria sanguinalis) was 5 (Level 5: the growth inhibition rate is greater than 85%) and the “Activity level (growth inhibition rate) Galium spurium” value (Galium spurium) was 5 (Level 5: the growth inhibition rate is greater than 85%). For the same molecule, the “Activity level (growth inhibition rate) Abutilon theophrasti” value (Abutilon theophrasti) was 5 (Level 5: the growth inhibition rate is greater than 85%) and the “Activity level (growth inhibition rate) Monochoria Vaginalis” value (Monochoria vaginalis) was 5 (Level 5: the growth inhibition rate is greater than 85%).

CC(Oc1nc(F)c(Cl)c(N)c1Cl)C(=O)OCc1ccc(S(C)(=O)=O)cc1 (stereo not shown) [Compound 105] was tested, and the “Activity level (growth inhibition rate) Echinochloa crusgalli” value (Echinochloa crusgalli) was 5 (Level 5: the growth inhibition rate is greater than 85%), the “Activity level (growth inhibition rate) Digitaria sanguinalis” value (Digitaria sanguinalis) was 5 (Level 5: the growth inhibition rate is greater than 85%) and the “Activity level (growth inhibition rate) Galium spurium” value (Galium spurium) was 5 (Level 5: the growth inhibition rate is greater than 85%). The “Activity level (growth inhibition rate) Abutilon theophrasti” value (Abutilon theophrasti) was 5 (Level 5: the growth inhibition rate is greater than 85%) and the “Activity level (growth inhibition rate) Monochoria Vaginalis” value (Monochoria vaginalis) was 5 (Level 5: the growth inhibition rate is greater than 85%).

CC(Oc1nc(F)c(Cl)c(N)c1Cl)C(=O)SCc1ccncc1 (stereo not shown) [Compound 236] was tested, and the “Activity level (growth inhibition rate) Echinochloa crusgalli” value (Echinochloa crusgalli) was 5 (Level 5: the growth inhibition rate is greater than 85%), the “Activity level (growth inhibition rate) Digitaria sanguinalis” value (Digitaria sanguinalis) was 5 (Level 5: the growth inhibition rate is greater than 85%) and the “Activity level (growth inhibition rate) Galium spurium” value (Galium spurium) was 5 (Level 5: the growth inhibition rate is greater than 85%). For the same molecule, the “Activity level (growth inhibition rate) Abutilon theophrasti” value (Abutilon theophrasti) was 5 (Level 5: the growth inhibition rate is greater than 85%) and the “Activity level (growth inhibition rate) Monochoria Vaginalis” value (Monochoria vaginalis) was 5 (Level 5: the growth inhibition rate is greater than 85%).

In the case of CC(Oc1nc(F)c(Cl)c(N)c1Cl)C(=O)OCc1conn1 (stereo not shown) [Compound 153], the “Activity level (growth inhibition rate) Echinochloa crusgalli” value (Echinochloa crusgalli) is reported as 5 (Level 5: the growth inhibition rate is greater than 85%), the “Activity level (growth inhibition rate) Digitaria sanguinalis” value (Digitaria sanguinalis) is reported as 5 (Level 5: the growth inhibition rate is greater than 85%) and the “Activity level (growth inhibition rate) Galium spurium” value (Galium spurium) is reported as 5 (Level 5: the growth inhibition rate is greater than 85%). The “Activity level (growth inhibition rate) Abutilon theophrasti” value (Abutilon theophrasti) was 5 (Level 5: the growth inhibition rate is greater than 85%) and the “Activity level (growth inhibition rate) Monochoria Vaginalis” value (Monochoria vaginalis) was 5 (Level 5: the growth inhibition rate is greater than 85%).

For CC(Oc1nc(F)c(Cl)c(N)c1Cl)C(=O)SCc1cccc(C#N)c1 (stereo not shown) [Compound 226], the “Activity level (growth inhibition rate) Echinochloa crusgalli” value (Echinochloa crusgalli) was 5 (Level 5: the growth inhibition rate is greater than 85%), the “Activity level (growth inhibition rate) Digitaria sanguinalis” value (Digitaria sanguinalis) was 5 (Level 5: the growth inhibition rate is greater than 85%) and the “Activity level (growth inhibition rate) Galium spurium” value (Galium spurium) was 5 (Level 5: the growth inhibition rate is greater than 85%). For the same molecule, the “Activity level (growth inhibition rate) Abutilon theophrasti” value (Abutilon theophrasti) was 5 (Level 5: the growth inhibition rate is greater than 85%) and the “Activity level (growth inhibition rate) Monochoria Vaginalis” value (Monochoria vaginalis) was 5 (Level 5: the growth inhibition rate is greater than 85%).

In the case of CC(Oc1nc(F)c(Cl)c(N)c1Cl)C(=O)SCc1ccccc1Br (stereo not shown) [Compound 229], the “Activity level (growth inhibition rate) Echinochloa crusgalli” value (Echinochloa crusgalli) is reported as 5 (Level 5: the growth inhibition rate is greater than 85%), the “Activity level (growth inhibition rate) Digitaria sanguinalis” value (Digitaria sanguinalis) is reported as 5 (Level 5: the growth inhibition rate is greater than 85%) and the “Activity level (growth inhibition rate) Galium spurium” value (Galium spurium) is reported as 5 (Level 5: the growth inhibition rate is greater than 85%). For the same molecule, the “Activity level (growth inhibition rate) Abutilon theophrasti” value (Abutilon theophrasti) was 5 (Level 5: the growth inhibition rate is greater than 85%) and the “Activity level (growth inhibition rate) Monochoria Vaginalis” value (Monochoria vaginalis) was 5 (Level 5: the growth inhibition rate is greater than 85%).

In the case of Cc1ccc(CSC(=O)C(C)Oc2nc(F)c(Cl)c(N)c2Cl)cc1 (stereo not shown) [Compound 220], the “Activity level (growth inhibition rate) Echinochloa crusgalli” value (Echinochloa crusgalli) is reported as 5 (Level 5: the growth inhibition rate is greater than 85%), the “Activity level (growth inhibition rate) Digitaria sanguinalis” value (Digitaria sanguinalis) is reported as 5 (Level 5: the growth inhibition rate is greater than 85%) and the “Activity level (growth inhibition rate) Galium spurium” value (Galium spurium) is reported as 5 (Level 5: the growth inhibition rate is greater than 85%). The “Activity level (growth inhibition rate) Abutilon theophrasti” value (Abutilon theophrasti) was 5 (Level 5: the growth inhibition rate is greater than 85%) and the “Activity level (growth inhibition rate) Monochoria Vaginalis” value (Monochoria vaginalis) was 5 (Level 5: the growth inhibition rate is greater than 85%).

For CC(=O)Nc1ccc(CSC(=O)C(C)Oc2nc(F)c(Cl)c(N)c2Cl)cc1 (stereo not shown) [Compound 97], the “Activity level (growth inhibition rate) Echinochloa crusgalli” value (Echinochloa crusgalli) was 5 (Level 5: the growth inhibition rate is greater than 85%), the “Activity level (growth inhibition rate) Digitaria sanguinalis” value (Digitaria sanguinalis) was 5 (Level 5: the growth inhibition rate is greater than 85%) and the “Activity level (growth inhibition rate) Galium spurium” value (Galium spurium) was 5 (Level 5: the growth inhibition rate is greater than 85%). For the same molecule, the “Activity level (growth inhibition rate) Abutilon theophrasti” value (Abutilon theophrasti) was 5 (Level 5: the growth inhibition rate is greater than 85%) and the “Activity level (growth inhibition rate) Monochoria Vaginalis” value (Monochoria vaginalis) was 5 (Level 5: the growth inhibition rate is greater than 85%).

For CCc1c(OC(C)C(=O)SCc2ccccc2)nc(C(F)(F)F)c(CC)c1N (stereo not shown) [Compound 8], the “Activity level (growth inhibition rate) Echinochloa crusgalli” value (Echinochloa crusgalli) was 5 (Level 5: the growth inhibition rate is greater than 85%), the “Activity level (growth inhibition rate) Digitaria sanguinalis” value (Digitaria sanguinalis) was 5 (Level 5: the growth inhibition rate is greater than 85%) and the “Activity level (growth inhibition rate) Galium spurium” value (Galium spurium) was 5 (Level 5: the growth inhibition rate is greater than 85%). The “Activity level (growth inhibition rate) Abutilon theophrasti” value (Abutilon theophrasti) was 5 (Level 5: the growth inhibition rate is greater than 85%) and the “Activity level (growth inhibition rate) Monochoria Vaginalis” value (Monochoria vaginalis) was 5 (Level 5: the growth inhibition rate is greater than 85%).
